Where only a bound is given, the exact number is not on record here.

Here are results for one compound from publication PMC10985088, “Synthesis and biological evaluation of echinomycin analogues as potential colon cancer agent” (Scientific Reports, 2024).

Data set [1] is described as follows: Hepatic microsomal stability assay, human. It is filed as in vitro ADME. The following applies: microsomes, 1 μM, 0.2 mg/mL microsomes, 37 °C, 30 min. On the procedure:
(§1) Before investigating the in vivo efficacy of 3, its metabolic stability was evaluated by treatment with human or mouse liver microsomes at 37 °C for 30 min, and the remaining analogues were analyzed by LC–MS/MS (Table 3). […] This means that approximately 67% of 3 was unaffected by human liver microsomes.
(§2) Basically, the analysis was performed using methods previously reported. Disappearance of the parent compound over time was measured by using the amount of drug at time zero as a reference. After 5 min of preincubation, 1 mM NADPH (final concentration, the same applies to the following, NADPH( +)) or 0.1 M phosphate buffer (pH 7.4, NADPH(−))) was added to a mixture containing 1 μM of the test compound, 0.2 mg/mL of human or mouse liver microsomes (Sekisui XenoTech LLC (Kansas City, KS)), 1 mM EDTA and 0.1 M phosphate buffer (pH 7.4) and incubated at 37 °C for 30 min by rotation at 60 rpm. An aliquot of 50 μL of the incubation mixture was sampled and added to 250 μL of chilled acetonitrile/internal standard (IS). After centrifuging for 15 min at 3150×g (4 °C), the supernatants were analyzed by LC–MS/MS. Hepatic microsomal stability (mL/min/kg, CLint) was calculated according to the previous report, using 48.8 and 45.4 mg MS protein/g liver and 25.7 and 87.5 g liver/kg body weight as scaling factors for human and mouse, respectively.
(§3) Basically, the analysis was performed using methods previously reported. An LC-MS8060 instrument equipped with a Shimadzu Nexera series LC system (Shimadzu, Kyoto, Japan) was used. All compounds were analyzed in multi-reaction monitoring mode under electron spray ionization conditions. The analytical column used was a […] C18 MGIII (3 μm × 2.0 mmID × 35 mm; OSAKA SODA, Osaka, Japan) at 50 °C. The gradient mobile phase consisted of 0.1% formic acid in water (mobile phase A,) and 0.1% formic acid in acetonitrile (mobile phase B) at a total flow rate of 1 mL/min. The initial mobile phase composition was 10% B, which was held constant for 0.2 min, increased in a linear fashion to 90% B over 1 min, then held constant for 0.8 min, and finally brought back to the initial condition of 10% B over 0.01 min and re-equilibrated for 1 min. The transitions (precursor ion > product ion) of echinomycin, 3 and IS (methyl testosterone) are 1101.45 > 1053.5 (positive), 1083.5 > 523.95 (negative), and 303.1 > 109.1 (positive), respectively.

A short description of data set [2]: Hepatic microsomal stability assay, mouse. It is filed as in vitro ADME. The conditions noted are these: microsomes, 1 μM, 0.2 mg/mL microsomes, 37 °C, 30 min. On the procedure:
as §1, §2, §3

Data set [3] in a line: Investigation of maximum tolerated dose (body weight of mice). It is filed as in vivo, mouse. The conditions noted are these: 14 days. Here is the method: (§4) Toxicity Body weight change is an indicator of systemic toxicity. Accordingly, the body weights of mice intraperitoneally treated with different doses (0.04 and 0.4 µg/mouse) of either 1 or 3 were measured (Fig. S1). […] A blood hematological examination (including nineteen parameters) was also conducted on these mice on Day 14 (Fig. S2). There were no significant changes in almost any of the parameters in the mice treated with either 1 or 3 at doses of 0.04 or 0.4 µg/mouse.

The nature of data set [4]: Serum biochemistry / blood examination of treated mice. The conditions noted are these: 0.4 µg/mouse i.p., Day 14. It is filed as in vivo. Here is the method: as §4
Male BALB/c mice (7 weeks old) were purchased from Charles River Laboratories Japan, Inc. Each compound was intraperitoneally injected daily for 14 days. […] Serum was collected by centrifuging blood at 5000 rpm for 10 min. Biochemistry was performed in Oriental Yeast Co., Ltd, Japan.

Data set [5] relates to SW620 xenograft. Briefly: SW620 xenograft mouse model. It is filed as in vivo. The conditions noted are these: i.p. 0.04 and 0.4 µg/mouse daily for 10 days, compared to PBS-injected group. On the procedure:
Since the metabolic stability and identification of the maximum tolerated dose of 3 were confirmed, the effect of 3 on colon cancer progression in vivo was then investigated (Fig. 7). A xenograft model was generated by injecting a suspension of 2 × 10^6 SW620 cells into the backs of nude mice. The doses of the compounds were 0.04 and 0.4 µg/mouse, which correspond to approximately 1.6 and 16 μg/kg, respectively, according to the results obtained in Fig. S1. A solution of 1, 3, or PBS was injected intraperitoneally into each mouse, and tumor sizes were measured each day. […] Of note is the efficacy of tumor growth inhibition with 3.
Figure 7 In vivo anticancer activity of echinomycin and 3 on the SW620 xenograft mice model. Male BALB/C nude mice were administered by intraperitoneal injection with the vehicle, echinomycin and 3, at dosages of 0.04 and 0.4 µg/mice (n = 10 each group), every day for 10 days (a, b). Average tumor volume (c) was measured. Data are expressed as the mean ± standard error ([…]). *Indicates P < 0.05 by Student's t test. The error bars show the s.d. (n = 10).
Basically, the experiments were performed using methods previously reported. […] The tumor size was calculated by the following formula: Tumor size (mm^2) = (major diameter) × (minor diameter).

On the set-up of data set [6]: method as in PMID 2737217. The following applies: doses of 60 and 120 μg/m^2; cited from earlier work.

On to `CS[C@H]1SC[C@H]2C(=O)N(C)[C@@H](C(C)C)C(=O)OC[C@@H](NC(=O)c3cnc4ccccc4n3)C(=O)N[C@@H](C)C(=O)N(C)[C@@H]1C(=O)N(C)[C@@H](C(C)C)C(=O)OC[C@@H](NC(=O)c1cnc3ccccc3n1)C(=O)N[C@@H](C)C(=O)N2C` [Compound 1, Echinomycin], for which the CLint scaled in data set [1] (NADPH(+), read-out: Metabolic stability (CLint) Human NADPH(+)) is below 22 mL/min/kg. Further, the CLint scaled in data set [1] (NADPH(−), read-out: Metabolic stability (CLint) Human NADPH(−)) was below 22 mL/min/kg. Also, the CLint scaled in data set [2] (NADPH(+), read-out: Metabolic stability (CLint) Mouse NADPH(+)) was below 69.8 mL/min/kg. Also, the CLint scaled in data set [2] (NADPH(−), read-out: Metabolic stability (CLint) Mouse NADPH(−)) was below 69.8 mL/min/kg. Also, the body weight entry in data set [3] (i.p. 0.04 and 0.4 µg/mouse, daily) was “did not differ greatly from those of the control”. Further, the “dose up to which no significant toxicity is shown” value in data set [3] (i.p. daily, body weight and blood examination) is at least 0.04 µg/mouse. In data set [4], the “alanine aminotransferase (ALT)” value is given as “increase”, the “aspartate aminotransferase (AST)” value is reported as “increase”, the “lactate dehydrogenase (LDH)” value is “increase” and the “total bilirubin (T-BIL)” value is on record as “decrease”. The tumor growth result in data set [5] is “significantly suppressed”. Also, in data set [6], the “toxicity at lower doses in human clinical trials” value is reported as “no observed toxicity”.
